The target in this test is T1, soluble ectodomain of sortilin-6his (Homo sapiens, UniProt Q99523, V650M).
T1 construct: the soluble ectodomain of sortilin-6his is measured by microscale thermophoresis (MST)
Kind of test: MST binding to soluble ectodomain of sortilin-6his. The note with it: MST, read-out: KD score, binding to sortilin (Kd). As to the method: At this point the plate was sealed with adhesive strip and placed on an Eppendorf thermomixer to shake at 600 rpm for 3 min before spinning on a Fisherbrand plate-spinner for 15 seconds and further incubation 1 hrs at 19° C. MST was measured on a Monolith NT. Automated (Nanotemper) in standard-treated capillaries at 5% LED-power and high MST-power. Dose-response was extracted from the raw thermographs at 20 sec hot-time and the dissociation constant was estimated by sigmoidal curve fitting in MO. Affinity analysis program (Nanotemper). All experiments were run in duplicates.

Setting [1] is: Table 4, small molecule bifunctional compounds.
The mark [2] stands for this setting: Table 3, monofunctional peptides.
Where [3] appears, read: Table 1, biotin-linker-peptide bifunctional compounds.

Read-outs that look alike come from different tables or passages of the source. Residues, ends and D or L forms follow the SMILES beside them. No end group written: not given here. *: point of attachment. Biotin = O=C1N[C@H]2[C@H](CS[C@H]2CCCCC(=O)*)N1

The Kd is a measure of binding affinity in units of concentration. On to `CC(C)(C)CC[C@H](NC(=O)COc1cccc(Oc2ccc(C(=O)NCCOCCNc3ncc(-c4ccc5c(n4)N(Cc4cccnc4C#N)C(C)(C)C5=O)cn3)cn2)c1)C(=O)O` [BF072, (2S)-2-[[2-[3-[[5-[2-[2-[[5-[1-[(2-cyano-3-pyridyl)methyl]-2,2-dimethyl-3-oxo-pyrrolo[2,3-b]pyridin-6-yl]pyrimidin-2-yl]amino]ethoxy]ethylcarbamoyl]-2-pyridyl]oxy]phenoxy]acetyl]amino]-5,5-dimethyl-hexanoic acid], for which the Kd under setting [1] was less than 0.001 µM. The same measure, in the same setting: then `CC(C)(C)CC[C@H](NC(=O)c1ccc(Oc2cccc(C(=O)NCCOCCOCCOCc3ccc(-c4cccc5ccncc45)c(OCCc4ccc(-c5cccc6ccncc56)cc4)c3)c2)nc1)C(=O)O` [BF033, (2S)-2-[[6-[3-[2-[2-[2-[[4-(8-isoquinolyl)-3-[2-[4-(8-isoquinolyl)phenyl]ethoxy]phenyl]methoxy]ethoxy]ethoxy]ethylcarbamoyl]phenoxy]pyridine-3-carbonyl]amino]-5,5-dimethyl-hexanoic acid], with less than 0.001 µM; and `CC(C)(C)CC[C@H](NC(=O)c1ccc(Oc2cccc(C(=O)NCCOCCOCCNc3ccc([N+](=O)[O-])cc3[N+](=O)[O-])c2)nc1)C(=O)O` [BF001, (2S)-2-[[6-[3-[2-[2-[2-(2,4-dinitroanilino)ethoxy]ethoxy]ethylcarbamoyl]phenoxy]pyridine-3-carbonyl]amino]-5,5-dimethyl-hexanoic acid], with 0.001 to 0.01 µM.

With REALRWDAPLRDPAPRQLL-OH [compound 54], the Kd under setting [2] was less than 0.025 µM. For `CC(C)C[C@H](NC(=O)[C@H](CC(C)C)NC(=O)[C@H](CCC(N)=O)NC(=O)[C@@H]1CCCN1)C(=O)O` [compound 25] (H-PQLL-OH), the Kd under setting [2] was in the range of 0.025 to 0.25 µM. With `CC(C)C[C@H](NC(=O)[C@H](CC(C)C)NC(=O)[C@H](CCC(N)=O)NC(=O)[C@H](CCCNC(=N)N)NC(=O)CNC(=O)CNC(=O)CNC(=O)CNC(=O)[C@H](CO)NC(=O)CNC(=O)CNC(=O)CCCC[C@@H]1SC[C@@H]2NC(=O)N[C@@H]21)C(=O)O` [compound 150] (Biotin-GGSGGGGRQLL-OH), the Kd under setting [3] was less than 0.1 µM. With `CC(C)(C)CC[C@H](NC(=O)c1ccc(Oc2cccc(OCC(=O)NCCOCCOCCOCCNc3ncc(-c4ccc5c(n4)N(Cc4cccnc4C#N)C(C)(C)C5=O)cn3)c2)nc1)C(=O)O` [BF137, (2S)-2-[[6-[3-[2-[2-[2-[2-[2-[[5-[1-[(2-cyano-3-pyridyl)methyl]-2,2-dimethyl-3-oxo-pyrrolo[2,3-b]pyridin-6-yl]pyrimidin-2-yl]amino]ethoxy]ethoxy]ethoxy]ethylamino]-2-oxo-ethoxy]phenoxy]pyridine-3-carbonyl]amino]-5,5-dimethyl-hexanoic acid], under setting [1], the Kd is less than 0.001 µM. Regarding `CC(C)C[C@H](NC(=O)[C@H](CC(C)C)NC(=O)[C@H](CCC(N)=O)NC(=O)[C@H](CCCNC(=N)N)NC(=O)[C@H](CO)NC(=O)CNC(=O)CNC(=O)CCCC[C@@H]1SC[C@@H]2NC(=O)N[C@@H]21)C(=O)O` [compound 152] (Biotin-GGSRQLL-OH), the Kd under setting [3] is 0.1 to 2 µM. In the case of `CC(C)C[C@H](NC(=O)[C@H](CC(C)C)NC(=O)[C@H](Cc1ccc(O)cc1)NC(=O)[C@@H](N)CCCNC(=N)N)C(=O)O` [compound 27, RYLL-OH] (H-RYLL-OH), the Kd under setting [2] fell in the range of 0.025 to 0.25 µM. Same read-out and setting: next, `CC(C)C[C@H](NC(=O)[C@H](CC(C)C)NC(=O)[C@H](CCC(N)=O)NC(=O)[C@@H](N)Cc1ccccc1)C(=O)O` [compound 23, FQLL-OH] (H-FQLL-OH): 0.025 to 0.25 µM. As for `C[C@@H]1CN(c2ncc(-c3ccc4c(n3)N(Cc3cccnc3C#N)C(C)(C)C4=O)cn2)CCN1C(=O)COCCCCCCCCNc1cccc(Oc2ccc(C(=O)N[C@@H](CCC(C)(C)C)C(=O)O)cn2)c1` [BF038], the Kd under setting [1] is more than 0.25 µM. With `CC(C)C[C@H](NC(=O)[C@H](CC(C)C)NC(=O)[C@H](CCC(N)=O)NC(=O)[C@@H](N)Cc1c[nH]cn1)C(=O)O` [compound 41] (H-HQLL-OH; N-terminus assumed), the Kd under setting [2] is more than 2.5 µM. In the case of `Cc1nc2cc(F)c(-c3cnc(OCCN4CC(n5cc(COCC(=O)N6CC(OCCNC(=O)COc7cccc(Oc8ccc(C(=O)N[C@@H](CCC(C)(C)C)C(=O)O)cn8)c7)C6)nn5)C4)nc3)nc2c(N[C@H](C)c2cc(C#N)ccc2F)c1Cl` [BF089, (2S)-2-[[6-[3-[2-[2-[1-[2-[[1-[1-[2-[5-[7-chloro-8-[[(1R)-1-(5-cyano-2-fluoro-phenyl)ethyl]amino]-3-fluoro-6-methyl-1,5-naphthyridin-2-yl]pyrimidin-2-yl]oxyethyl]azetidin-3-yl]triazol-4-yl]methoxy]acetyl]azetidin-3-yl]oxyethylamino]-2-oxo-ethoxy]phenoxy]pyridine-3-carbonyl]amino]-5,5-dimethyl-hexanoic acid], under setting [1], the Kd was less than 0.001 µM. With H-GVSWGLR-OH [compound 52], the Kd under setting [2] was more than 2.5 µM. As to `CC(C)(C)CC[C@H](NC(=O)c1ccc(Oc2cccc(OCCOCCOCCOCCOCCOCCOCCOCCNc3ccc([N+](=O)[O-])cc3[N+](=O)[O-])c2)nc1)C(=O)O` [BF012, (2S)-2-[[6-[3-[2-[2-[2-[2-[2-[2-[2-[2-(2,4-dinitroanilino)ethoxy]ethoxy]ethoxy]ethoxy]ethoxy]ethoxy]ethoxy]ethoxy]phenoxy]pyridine-3-carbonyl]amino]-5,5-dimethyl-hexanoic acid], under setting [1], the equilibrium dissociation constant (Kd) fell in the range of 0.001 to 0.01 µM. On the same count and under the same terms, next, `C[C@@H]1CN(c2ncc(-c3ccc4c(n3)N(Cc3cccnc3C#N)C(C)(C)C4=O)cn2)CCN1C(=O)Cn1cc(COCCOCCOCCOCCOCCOc2cccc(Oc3ccc(C(=O)N[C@@H](CCC(C)(C)C)C(=O)O)cn3)c2)nn1` [BF098, (2S)-2-[[6-[3-[2-[2-[2-[2-[2-[[1-[2-[(2R)-4-[5-[1-[(2-cyano-3-pyridyl)methyl]-2,2-dimethyl-3-oxo-pyrrolo[2,3-b]pyridin-6-yl]pyrimidin-2-yl]-2-methyl-piperazin-1-yl]-2-oxo-ethyl]triazol-4-yl]methoxy]ethoxy]ethoxy]ethoxy]ethoxy]ethoxy]phenoxy]pyridine-3-carbonyl]amino]-5,5-dimethyl-hexanoic acid]: less than 0.001 µM.

`CSCC[C@H](NC(=O)[C@H](CC(C)C)NC(=O)[C@H](CCC(N)=O)NC(=O)[C@@H](N)CCCNC(=N)N)C(=O)O` [compound 165] (H-RQLM-OH): under setting [2], the Kd was more than 2.5 µM. Same read-out and setting: then `CC(C)C[C@H](NC(=O)[C@H](Cc1ccc(O)cc1)NC(=O)[C@H](CCC(N)=O)NC(=O)[C@@H](N)CCCNC(=N)N)C(=O)O` [compound 39] (H-RQYL-OH), with 0.25 to 2.5 µM.

As to `C[C@@H]1CN(c2ncc(-c3ccc4c(n3)N(Cc3cccnc3C#N)C(C)(C)C4=O)cn2)CCN1C(=O)CNC(=O)CCCCCCCCn1cc(CCc2cccc(Oc3ccc(C(=O)N[C@@H](CCC(C)(C)C)C(=O)O)cn3)c2)nn1` [BF108, (2S)-2-[[6-[3-[2-[1-[9-[[2-[(2R)-4-[5-[1-[(2-cyano-3-pyridyl)methyl]-2,2-dimethyl-3-oxo-pyrrolo[2,3-b]pyridin-6-yl]pyrimidin-2-yl]-2-methyl-piperazin-1-yl]-2-oxo-ethyl]amino]-9-oxo-nonyl]triazol-4-yl]ethyl]phenoxy]pyridine-3-carbonyl]amino]-5,5-dimethyl-hexanoic acid], the Kd under setting [1] fell in the range of 0.001 to 0.01 µM. Still for that read-out and setting: next, `CC(C)(C)CC[C@H](NC(=O)c1ccc(Oc2cccc(OCC(=O)NCCOCCOCCOCCOc3ncc(-c4ccc5c(n4)N(Cc4cccnc4C#N)C(C)(C)C5=O)cn3)c2)nc1)C(=O)O` [BF139]: 0.001 to 0.01 µM. `CC(C)C[C@H](NC(=O)[C@H](CC(C)C)NC(=O)[C@H](CCC(N)=O)NC(=O)[C@H](Cc1ccccc1)NC(=O)CNC(=O)CNC(=O)CNC(=O)CNC(=O)[C@H](CO)NC(=O)CNC(=O)CNC(=O)CCCC[C@@H]1SC[C@@H]2NC(=O)N[C@@H]21)C(=O)O` [compound 143] (Biotin-GGSGGGGFQLL-OH): under setting [3], the dissociation constant Kd is less than 0.1 µM. As for `CC(C)C[C@H](NC(=O)[C@H](CC(C)C)NC(=O)[C@H](Cc1ccc(O)cc1)NC(=O)[C@@H]1CCCN1)C(=O)O` [compound 33] (H-PYLL-OH), the Kd under setting [2] is 0.25 to 2.5 µM. For the molecule `C[C@@H]1CN(c2ncc(-c3ccc4c(n3)N(Cc3cccnc3C#N)C(C)(C)C4=O)cn2)CCN1C(=O)CNC(=O)CCCCCOCCOCCNC(=O)c1cccc(Oc2ccc(C(=O)N[C@@H](CCC(C)(C)C)C(=O)O)cn2)c1` [BF100, (2S)-2-[[6-[3-[2-[2-[6-[[2-[(2R)-4-[5-[1-[(2-cyano-3-pyridyl)methyl]-2,2-dimethyl-3-oxo-pyrrolo[2,3-b]pyridin-6-yl]pyrimidin-2-yl]-2-methyl-piperazin-1-yl]-2-oxo-ethyl]amino]-6-oxo-hexoxy]ethoxy]ethylcarbamoyl]phenoxy]pyridine-3-carbonyl]amino]-5,5-dimethyl-hexanoic acid], the equilibrium dissociation constant (Kd) under setting [1] is less than 0.001 µM. On the same count and under the same terms, then `CC(C)(C)CC[C@H](NC(=O)c1ccc(Oc2cccc(C(=O)NCCOCCOCCOCCOCCOc3ncc(-c4ccc5c(n4)N(Cc4cccnc4C#N)C(C)(C)C5=O)cn3)c2)nc1)C(=O)O` [BF052], with 0.001 to 0.01 µM; and `CC(C)(C)CC[C@H](NC(=O)c1ccc(Oc2cccc(C(=O)NCCOCCOCCNc3ncc(-c4ccc5c(n4)N(Cc4cccnc4C#N)C(C)(C)C5=O)cn3)c2)nc1)C(=O)O` [BF049, (2S)-2-[[6-[3-[2-[2-[2-[[5-[1-[(2-cyano-3-pyridyl)methyl]-2,2-dimethyl-3-oxo-pyrrolo[2,3-b]pyridin-6-yl]pyrimidin-2-yl]amino]ethoxy]ethoxy]ethylcarbamoyl]phenoxy]pyridine-3-carbonyl]amino]-5,5-dimethyl-hexanoic acid], with 0.001 to 0.01 µM.

Regarding `CC(C)C[C@H](NC(=O)[C@H](CC(C)C)NC(=O)[C@H](CCC(N)=O)NC(=O)[C@@H](N)Cc1ccc(O)cc1)C(=O)O` [compound 29, YQLL-OH] (H-YQLL-OH), under setting [2], the Kd lay in the range of 0.025 to 0.25 µM. Same read-out and setting: then PIPLV [compound 197, PIPLV-OH], with more than 2.5 µM.

The values are drawn from patent US20250345446A1 (Draupnir Bio ApS, priority 2022, published 2025).
